Where only a bound is given, the exact number is not on record here.

Sequence of Human complement C1s enzyme (P09871 438-688 limits assumed): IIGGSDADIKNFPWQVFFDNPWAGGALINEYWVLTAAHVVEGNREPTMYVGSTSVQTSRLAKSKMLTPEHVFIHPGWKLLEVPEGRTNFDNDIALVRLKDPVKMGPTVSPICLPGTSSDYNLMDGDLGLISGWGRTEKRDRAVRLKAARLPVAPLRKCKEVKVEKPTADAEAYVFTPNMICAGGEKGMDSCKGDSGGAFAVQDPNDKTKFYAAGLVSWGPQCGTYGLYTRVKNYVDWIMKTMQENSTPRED
Sequence of Human complement C1s enzyme (P09871 16-437 partner limits assumed): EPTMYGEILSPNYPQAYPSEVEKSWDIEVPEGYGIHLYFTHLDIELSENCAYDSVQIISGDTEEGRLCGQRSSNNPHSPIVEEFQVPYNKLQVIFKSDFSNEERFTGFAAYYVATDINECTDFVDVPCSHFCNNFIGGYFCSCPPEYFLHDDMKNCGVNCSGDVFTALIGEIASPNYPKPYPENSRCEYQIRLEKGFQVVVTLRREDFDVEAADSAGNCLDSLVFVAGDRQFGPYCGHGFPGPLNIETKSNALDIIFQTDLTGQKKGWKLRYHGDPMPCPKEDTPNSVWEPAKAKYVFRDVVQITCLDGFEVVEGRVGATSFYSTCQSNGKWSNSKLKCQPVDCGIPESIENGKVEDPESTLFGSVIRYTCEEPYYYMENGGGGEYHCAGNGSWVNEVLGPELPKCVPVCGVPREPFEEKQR

This test concerns the target Human complement C1s enzyme (Homo sapiens (Human), UniProt P09871). Briefly: Human C1s enzyme assay. The class given is biochemical. Particulars: Human C1s enzyme assay of Example 3; read-out: IC50 (Stars). As for the experimental part: Human complement C1s enzyme (purified from human serum, Complement Technology, Inc.) at 1.16 nM final concentration was incubated with test compound at various concentrations for 5 min at room temperature in 50 mM Tris, 1 M NaCl, pH 7.5. A synthetic substrate Z-L-Lys-SBzl and DTNB (Ellman's reagent) were added to final concentrations of 100 μM each. Absorbance at 405 nm (A405) was recorded at 30 second intervals for 30 min using a microplate spectrophotometer. IC50 values were calculated by nonlinear regression of complement C1s reaction rates as a function of test compound concentration.
For `Cc1ccc(Oc2ccc(C(=O)NCC(=O)N3[C@H]4C[C@@]4(C)C[C@H]3C(=O)N[C@H](C)c3ccc(C(=N)N)s3)cc2)cc1` [Compound 26, (1S,3S,5S)—N—((R)-1-(5-carbamimidoylthiophen-2-yl)ethyl)-5-methyl-2-((4-(p-tolyloxy)benzoyl)glycyl)-2-azabicyclo[3.1.0]hexane-3-carboxamide], the IC50 was less than 100 nM.

Regarding `Cc1cc(C(=O)NCC(=O)N2[C@H]3C[C@@]3(C)C[C@H]2C(=O)N[C@H](C)c2cc(C(=N)N)cs2)ccc1Oc1ccc(F)cc1` [Compound 27, (1S,3S,5S)—N—((R)-1-(4-carbamimidoylthiophen-2-yl)ethyl)-2-((4-(4-fluorophenoxy)-3-methylbenzoyl)glycyl)-5-methyl-2-azabicyclo[3.1.0]hexane-3-carboxamide], the IC50 is less than 100 nM.

For `Cc1cc(C(=O)NCC(=O)N2[C@H]3C[C@@]3(C)C[C@H]2C(=O)N[C@H](C)c2cc(C(=N)N)cs2)ccc1Oc1ccccc1` [Compound 28, (1S,3S,5S)—N—((R)-1-(4-carbamimidoylthiophen-2-yl)ethyl)-5-methyl-2-((3-methyl-4-phenoxybenzoyl)glycyl)-2-azabicyclo[3.1.0]hexane-3-carboxamide], the concentration for half-maximal inhibition (IC50) is less than 100 nM.

Take `C[C@@H](NC(=O)[C@@H]1C[C@]2(C)C[C@@H]2N1C(=O)CNC(=O)c1ccc2c(c1)-c1ccccc1C2(F)F)c1ccc(C(=N)N)s1` [Compound 29, (1S,3S,5S)—N—((R)-1-(5-carbamimidoylthiophen-2-yl)ethyl)-2-((9,9-difluoro-9H-fluorene-3-carbonyl)glycyl)-5-methyl-2-azabicyclo[3.1.0]hexane-3-carboxamide]: the concentration for half-maximal inhibition (IC50) is less than 100 nM.

On to `C[C@@H](NC(=O)[C@@H]1C[C@@H](OC(F)F)CN1C(=O)CNC(=O)c1ccc2c(c1)-c1ccccc1C2(F)F)c1ccc(C(=N)N)s1` [Compound 30, (2S,4R)—N—((R)-1-(5-carbamimidoylthiophen-2-yl)ethyl)-1-((9,9-difluoro-9H-fluorene-3-carbonyl)glycyl)-4-(difluoromethoxy)pyrrolidine-2-carboxamide], for which the IC50 was less than 100 nM.

`Cc1cc(C(=O)NCC(=O)N2[C@H]3C[C@@]3(C)C[C@H]2C(=O)N[C@H](C)c2ccc(C(=N)N)s2)ccc1Oc1ccccc1` [Compound 31, (1S,3S,5S)—N—((R)-1-(5-carbamimidoylthiophen-2-yl)ethyl)-5-methyl-2-((3-methyl-4-phenoxybenzoyl)glycyl)-2-azabicyclo[3.1.0]hexane-3-carboxamide]: the IC50 was less than 100 nM.

In the case of `Cc1cc(C(=O)NCC(=O)N2C[C@@](F)(CF)C[C@H]2C(=O)N[C@H](C)c2cc(C(=N)N)cs2)ccc1Oc1ccccc1` [Compound 32, (2S,4R)—N—((R)-1-(4-carbamimidoylthiophen-2-yl)ethyl)-4-fluoro-4-(fluoromethyl)-1-((3-methyl-4-phenoxybenzoyl)glycyl)pyrrolidine-2-carboxamide], the IC50 was less than 100 nM.

`C[C@@H](NC(=O)[C@@H]1C[C@](F)(CF)CN1C(=O)CNC(=O)c1ccc2c(c1)-c1ccccc1C2(F)F)c1ccc(C(=N)N)s1` [Compound 33, (2S,4R)—N—((R)-1-(5-carbamimidoylthiophen-2-yl)ethyl)-1-((9,9-difluoro-9H-fluorene-3-carbonyl)glycyl)-4-fluoro-4-(fluoromethyl)pyrrolidine-2-carboxamide]: the IC50 is less than 100 nM.

In the case of `COC[C@@]1(F)C[C@@H](C(=O)N[C@H](C)c2cc(C(=N)N)cs2)N(C(=O)CNC(=O)c2ccc(Oc3ccccc3)c(C)c2)C1` [Compound 34, (2S,4R)—N—((R)-1-(4-carbamimidoylthiophen-2-yl)ethyl)-4-fluoro-4-(methoxymethyl)-1-((3-methyl-4-phenoxybenzoyl)glycyl)pyrrolidine-2-carboxamide], the IC50 is less than 100 nM.

As for `C[C@@H](NC(=O)[C@@H]1C[C@](F)(CN)CN1C(=O)CNC(=O)c1ccc2c(c1)-c1ccccc1C2(F)F)c1cc(C(=N)N)cs1` [Compound 35, (2S,4S)-4-(aminomethyl)-N—((R)-1-(4-carbamimidoylthiophen-2-yl)ethyl)-1-((9,9-difluoro-9H-fluorene-3-carbonyl)glycyl)-4-fluoropyrrolidine-2-carboxamide], the IC50 is less than 100 nM.

With `C[C@@H](NC(=O)[C@@H]1C[C@](F)(CN(C)C)CN1C(=O)CNC(=O)c1ccc2c(c1)-c1ccccc1C2(F)F)c1cc(C(=N)N)cs1` [Compound 36, (2S,4S)—N—((R)-1-(4-carbamimidoylthiophen-2-yl)ethyl)-1-((9,9-difluoro-9H-fluorene-3-carbonyl)glycyl)-4-((dimethylamino)methyl)-4-fluoropyrrolidine-2-carboxamide], the IC50 was less than 100 nM.

As to `C[C@@H](NC(=O)[C@@H]1C[C@@H](Oc2ccccc2)CN1C(=O)CNC(=O)c1ccc(Oc2ccc(F)cc2)cc1)c1cc(C(=N)N)cs1` [Compound 37, (2S,4R)—N—((R)-1-(4-carbamimidoylthiophen-2-yl)ethyl)-1-((4-(4-fluorophenoxy)benzoyl)glycyl)-4-phenoxypyrrolidine-2-carboxamide], the IC50 was less than 100 nM.

Regarding `COC[C@@]12C[C@@H]1N(C(=O)CNC(=O)c1ccc(Oc3ccc(F)cc3)cc1)[C@H](C(=O)N[C@H](C)c1ccc(C(=N)N)s1)C2` [Compound 38, (1S,3S,5R)—N—((R)-1-(5-carbamimidoylthiophen-2-yl)ethyl)-2-((4-(4-fluorophenoxy)benzoyl)glycyl)-5-(methoxymethyl)-2-azabicyclo[3.1.0]-hexane-3-carboxamide], the concentration for half-maximal inhibition (IC50) is less than 100 nM.

In the case of `CCc1ccc(Oc2ccc(C(=O)NCC(=O)N3C[C@H](OC(F)F)C[C@H]3C(=O)N[C@H](C)c3cc(C(=N)N)cs3)cc2)cc1` [Compound 39, (2S,4R)—N—((R)-1-(4-carbamimidoylthiophen-2-yl)ethyl)-4-(difluoromethoxy)-1-((4-(4-ethylphenoxy)benzoyl)glycyl)pyrrolidine-2-carboxamide], the IC50 was less than 100 nM.

As for `C[C@@H](NC(=O)[C@@H]1C[C@](F)(CF)CN1C(=O)CNC(=O)c1ccc(Oc2ccc(F)cc2)cc1)c1ccc(C(=N)N)s1` [Compound 40, (2S,4R)—N—((R)-1-(5-carbamimidoylthiophen-2-yl)ethyl)-4-fluoro-4-(fluoromethyl)-1-((4-(4-fluorophenoxy)benzoyl)glycyl)pyrrolidine-2-carboxamide], the IC50 was less than 100 nM.

Regarding `C[C@@H](NC(=O)[C@@H]1C[C@]2(CO)C[C@@H]2N1C(=O)CNC(=O)c1ccc(Oc2ccc(F)cc2)cc1)c1ccc(C(=N)N)s1` [Compound 41, (1S,3S,5R)—N—((R)-1-(5-carbamimidoylthiophen-2-yl)ethyl)-2-((4-(4-fluorophenoxy)benzoyl)glycyl)-5-(hydroxymethyl)-2-azabicyclo[3.1.0]hexane-3-carboxamide], the IC50 is less than 100 nM.

Take `C[C@@H](NC(=O)[C@@H]1C[C@]2(CO)C[C@@H]2N1C(=O)CNC(=O)c1ccc(Oc2ccc(F)cc2)cc1)c1cc(C(=N)N)cs1` [Compound 42, (1S,3S,5R)—N—((R)-1-(4-carbamimidoylthiophen-2-yl)ethyl)-2-((4-(4-fluorophenoxy)benzoyl)glycyl)-5-(hydroxymethyl)-2-azabicyclo[3.1.0]hexane-3-carboxamide]: the IC50 was less than 100 nM.

As usually defined, the IC50 is the concentration needed to halve the response being measured.

Source of the values: US20250346585A1 (Alexion Pharmaceuticals, Inc., priority 2022, published 2025).
